Data as given in patent US6060471A, “Reduction of hair growth” (priority 1998, dated 2000).
Read-outs that look alike come from different tables or passages of the source.

Key:
[1] = system: 18 kD human hair follicle protein (eIF-5A); experiment: Incorporation of 3H-spermidine into 18 kD human hair follicle proteins; format: cell-based; conditions: inhibitor 0.2 mM, follicles cultured 48 hours, 3H-spermidine 6 hours; for % Reduction of 3H-spermidine incorporation: 2880 min, 200 µM
Method: Human hair follicles derived from face lift procedures were isolated and placed in Williams E medium containing antibiotics, glutamine, insulin and hydrocortisone. Follicles were cultured for 48 hours at 37° C. in the presence of 1,6-diaminohexane (0.2 mM), 1,8-diaminooctane (0.2 mM), ciclopiroxolamine (0.2 mM) or hydralazine (0.2 mM). Control follicles were maintained in Williams E without any inhibitors present. At the end of the 48 hour period, ^3 H-spermidine […] was added to the culture for 6 hours. The hair follicles were washed in phosphate buffered saline to remove nonincorporated ^3 H-spermidine, and the follicles were homogenized in a buffer, pH 7.4, containing Tris (50 mM) and sucrose (0.5 mM). Hair follicle protein was applied to a 10% polyacrylamide gel. After the proteins were separated on the gel using a constant voltage (125 V), they were stained with coomassie blue. […] The protein bands were cutout of the gel and solubilized with BTS-450 (Beckman). The liquid scintillation fluid Econoscint (12 mL) was added to each sample, which was analyzed for ^3 H-spermidine incorporation by scintillation spectrometry.

[2] = system: flank organs of Golden Syrian hamsters (hair growth); experiment: Golden Syrian hamster assay (flank organ hair mass); format: in vivo; conditions: for inhibition in vivo at 10 %: read-out: % Inhibition (hair mass)
From the text: Male intact Golden Syrian hamsters are considered acceptable models for human beard hair growth in that they display oval shaped flank organs, one on each side, each about 8 mm. in major diameter, which grow thick black and coarse hair similar to human beard hair. These organs produce hair in response to androgens in the hamster. To evaluate the effectiveness of a composition including an inhibitor of the hypusine biosynthetic pathway, the flank organs of each of a group of hamsters are depilated by applying a thioglycolate based chemical depilatory (Surgex) and/or shaved. To one organ of each animal 10 μl. of vehicle alone once a day is applied, while to the other organ of each animal an equal amount of vehicle containing an inhibitor of the hypusine biosynthetic pathway is applied. After thirteen applications (one application per day for five days a week), the flank organs are shaved and the amount of recovered hair (hair mass) from each is weighed. Percent-reduction of hair growth is calculated by subtracting the hair mass (mg) value of the test compound treated side from the hair mass value of the vehicle treated side; the delta value obtained is then divided by the hair mass value of the vehicle treated side, and the resultant number is multiplied by 100.
The above-described assay will be referred to herein as the "Golden Syrian hamster" assay.
This vehicle also was used in the testing described below.

[3] = Table I, dose 10%, topical, 13 applications, pH per compound 6.0-8.5
[4] = Mesocricetus auratus, Table I, dose 10%, topical, 13 applications, pH per compound 6.0-8.5

SMILES | Incorporation of 3H-spermidine [1] [pmol/mg protein] | % Reduction of 3H-spermidine incorporation [1] [%] | Hair Mass, Treated [2, 3] | inhibition in vivo at 10 % [2, 4] [%] | further results
NCCCCCCN [1,6-Diaminohexane, 1,6-diaminohexane] | < 1.0 | 100 | 1.50 ± .20 mq |  | % Reduction of 3H-spermidine incorporation ([1]; listed as 1,6-diaminohexane): 47-100%; inhibition in vivo at 10 % ([2]; Mesocricetus auratus, topical): 51 ± 5%
NCCCCCCCN [1,7-Diaminoheptane, 1,7-diaminoheptane] |  |  | 0.80 ± .11 mq | 67 ± 4 | 
NCCCCN(CCCN)Cc1ccccc1 [N^4 -Benzylspermidine, N^4 -benzyl-spermidine] |  |  | 1.05 ± .12 mq | 62 ± 4 | 
NNc1nncc2ccccc12 [Hydralazine, hydralazine] | 10.3 | 47 |  |  | inhibition at 200 µM ([1]; Homo sapiens, 48 h, read-out: % Reduction of 3H-spermidine incorporation): 47 to 100%; inhibition in vivo at 5 % ([2]; Mesocricetus auratus, topical, Table III, dose 5%, pH 5.0): 33%; % Inhibition (hair mass) ([2]; Table III, dose 5%, pH 5.0): 33 ± 7%; Hair Mass, Treated ([2]; Table III, dose 5%, pH 5.0): 1.38 ± .14 mg
NCCCCCCCCN [1,8-Diaminooctane, 1,8-diaminooctane] | < 1.0 | 100 | 0.70 ± .12 mq | 74 ± 6 | % Reduction of 3H-spermidine incorporation ([1]; listed as 1,8-diaminooctane): 47-100%; inhibition in vivo at 2 % ([2]; Mesocricetus auratus, topical, Table II, dose 2%, pH 9.0): 24 ± 8%; inhibition in vivo at 5 % ([2]; Mesocricetus auratus, topical, Table II, dose 5%, pH 9.0): 48 ± 10%; inhibition in vivo at 10 % ([2]; Mesocricetus auratus, topical, Table II, dose 10%, pH 8.0): 74 ± 6%; Hair Mass, Treated ([2]; Table II, dose 2%, pH 9.0): 1.88 ± .25 mg; Hair Mass, Treated ([2]; Table II, dose 5%, pH 9.0): 1.86 ± .37 mg; Hair Mass, Treated ([2]; Table II, dose 10%, pH 8.0): 0.70 ± .12 mg
Cc1cc(C2CCCCC2)n(O)c(=O)c1 [Ciclopiroxolamine, ciclopiroxolamine] | < 1.0 | 100 |  |  | % Reduction of 3H-spermidine incorporation ([1]; listed as ciclopiroxolamine): 47-100%; inhibition in vivo at 10 % ([2]; Mesocricetus auratus, topical, Table III, dose 10%, pH 9.0): 44%; % Inhibition (hair mass) ([2]; Table III, dose 10%, pH 9.0): 44 ± 17%; Hair Mass, Treated ([2]; Table III, dose 10%, pH 9.0): 0.92 ± .21 mg
NCCCCCN [Cadaverine, cadaverine] |  |  | 1.91 ± .15 mq | 43 ± 4 | 
NCCCCCCCCCN [1,9-Diaminononane, 1,9-diaminononane] |  |  | 1.27 ± .56 mq | 50 ± 13 | 
